Laboratory results published in publication PMC6152703, “Evaluation of the Antidiabetic Activity and Chemical Composition of Geranium collinum Root Extracts—Computational and Experimental Investigations” (Molecules : A Journal of Synthetic Chemistry and Natural …, 2017).
Where two headings read alike, the source gives them in different places.

Assays:
α-glucosidase = α-glucosidase (Saccharomyces cerevisiae, UniProt P53341); type: biochemical
Protocol: (§1) The antidiabetic effect of gallic acid was evaluated in vitro on inhibitory enzymes (α-glucosidase and α-amylase). Antidiabetic activity was determined using PTP-1B inhibition and α-glucosidase procedures. PTP-1B is a negative regulator of the insulin signaling pathway. All extracts of G. collinum were obtained after a period of extraction of 2 h. […] It is well known that polyphenols can provide health benefits to humans attributed to their strong radical-scavenging and antioxidant effects.
α-Glucosidase inhibitory activities were evaluated according to the chromogenic method described by.

PTP-1B = target: T1, PTP-1B (Homo sapiens, UniProt P18031); test: PTP-1B enzyme inhibition assay; type: biochemical; settings: in vitro enzyme inhibition; for IC50: read-out: Antidiabetic Activity (PTP-1B) IC50 Values (converted)
T1 sequence (P18031 1-435): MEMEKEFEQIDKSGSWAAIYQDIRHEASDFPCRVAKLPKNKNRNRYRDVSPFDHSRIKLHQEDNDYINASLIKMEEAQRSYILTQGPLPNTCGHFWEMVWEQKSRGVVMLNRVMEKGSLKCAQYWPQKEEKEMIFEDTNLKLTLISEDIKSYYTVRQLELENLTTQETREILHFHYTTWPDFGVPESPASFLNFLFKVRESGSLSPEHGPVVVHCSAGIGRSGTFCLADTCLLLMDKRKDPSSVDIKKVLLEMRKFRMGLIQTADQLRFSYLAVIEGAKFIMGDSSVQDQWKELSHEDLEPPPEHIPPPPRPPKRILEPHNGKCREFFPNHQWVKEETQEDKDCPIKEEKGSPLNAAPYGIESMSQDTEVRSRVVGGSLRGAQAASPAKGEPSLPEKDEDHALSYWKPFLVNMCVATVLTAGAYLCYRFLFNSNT
Protocol: as §1

[1] = DPPH scavenging assay (antioxidant activity); settings: 30 min, 517 nm
Protocol: The majority of the antioxidant activities (such as free radical scavenging) of herbal medicines, vegetables and fruits may be due to their phenolic compounds. A lower IC50 value than the standard vitamin C implied a significant antioxidant activity of the tested samples.
Antioxidant activity was measured using the DPPH (1,1-diphenyl-2-picrylhydrazyl) scavenging assay procedure as published in the literature. The extracts were dissolved in DMSO in a concentration of 100 µg/mL. Different concentrations of each extract were prepared in DMSO. Sample solution in different concentrations was added at 2.5 mL in each well of the 96 micro well plate. Into each well was added 1 mL of 0.3 mM DPPH solution in ethanol to produce the test solutions. DMSO (1 mL) was added to produce the blank solutions. Negative control sample was prepared by mixing 1 mL of DPPH solution with 2.5 mL of DMSO. The solutions were kept in the dark at room temperature for 30 min. Absorbance was measured at the wavelength of 517 nm. Ascorbic acid (vitamin C) was used as the standard sample.

Chain of α-glucosidase (P53341 whole entry): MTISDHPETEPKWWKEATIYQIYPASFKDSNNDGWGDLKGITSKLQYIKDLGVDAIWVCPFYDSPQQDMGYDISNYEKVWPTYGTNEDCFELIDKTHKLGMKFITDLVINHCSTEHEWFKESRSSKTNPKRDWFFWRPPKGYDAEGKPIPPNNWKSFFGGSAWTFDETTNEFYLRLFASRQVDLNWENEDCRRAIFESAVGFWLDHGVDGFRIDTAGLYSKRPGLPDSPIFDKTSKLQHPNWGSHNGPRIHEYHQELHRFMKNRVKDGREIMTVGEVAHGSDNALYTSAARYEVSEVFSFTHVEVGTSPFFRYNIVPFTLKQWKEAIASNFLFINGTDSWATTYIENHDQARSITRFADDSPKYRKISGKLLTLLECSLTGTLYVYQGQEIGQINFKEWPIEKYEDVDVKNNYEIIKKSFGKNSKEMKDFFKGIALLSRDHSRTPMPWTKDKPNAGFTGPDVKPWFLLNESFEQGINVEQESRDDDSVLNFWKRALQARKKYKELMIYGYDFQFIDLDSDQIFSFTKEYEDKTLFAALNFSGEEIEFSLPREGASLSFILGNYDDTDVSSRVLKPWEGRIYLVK

## Oc1cc(O)c2c(c1)OC(c1ccc(O)c(O)c1)C(O)C2 (single isomer, unassigned; (+)) [Catechin, (+)-Catechin]
α-glucosidase
  antidiabetic activities in the α-glucosidase inhibition assay (in words): potent antidiabetic activities
PTP-1B
  IC50: 2.14 µM

## COc1cc2c(=O)oc3c(OC)c(OC)cc4c(=O)oc(c1OC)c2c34 [3,3′,4,4′-Tetra-O-methylellagic acid]
α-glucosidase; in vitro enzyme inhibition
  Antidiabetic Activity (α-Glucosidase) IC50 Values: No effect
PTP-1B
  IC50: 60.4 µM

## COc1c(O)cc2c(=O)oc3c(OC)c(O)cc4c(=O)oc1c2c34 [3,3′-Di-O-methylellagic acid]
α-glucosidase; in vitro enzyme inhibition
  Antidiabetic Activity (α-Glucosidase) IC50 Values: No effect
PTP-1B
  IC50: 19 µM

## O=C(O)/C=C/c1ccc(O)c(O)c1 [Caffeic acid]
PTP-1B
  IC50: 199 µM

## O=C(O[C@@H]1O[C@@H]2COC(=O)c3cc(O)c(O)c(O)c3-c3c(cc(O)c(O)c3O)C(=O)O[C@H]([C@H]1O)[C@@H]2O)c1cc(O)c(O)c(O)c1 [Corilagin, Corilagin (1-O-galloyl-3,6-O-hexahydroxydiphenoyl-β-D-glucose)]
α-glucosidase; in vitro enzyme inhibition
  antidiabetic activities in the α-glucosidase inhibition assay (in words): potent antidiabetic activities
PTP-1B
  IC50: 1.37 µM

## CC[C@H](CC[C@@H](C)[C@H]1CC[C@H]2[C@@H]3CC=C4C[C@@H](O[C@@H]5O[C@H](CO)[C@@H](O)[C@H](O)[C@H]5O)CC[C@]4(C)[C@H]3CC[C@]12C)C(C)C [Daucosterol, β-Sitosterol-3-O-β-D-glucopyranoside]
PTP-1B
  Antidiabetic Activity (PTP-1B) IC50 Values: No effect

## Oc1cc(O)c2c(c1)O[C@H](c1ccc(O)c(O)c1)[C@H](O)C2 [Epicatechin, (–)-Epicatechin]
α-glucosidase
  antidiabetic activities in the α-glucosidase inhibition assay (in words): potent antidiabetic activities
PTP-1B
  IC50: 0.792 µM

## Oc1cc(O)c2c(c1)O[C@H](c1cc(O)c(O)c(O)c1)[C@H](O)C2 [Epigallocatechin, (–)-Epigallocatechin (3,3′,4,5,5′,7-flavanhexol)]
PTP-1B
  Antidiabetic Activity (PTP-1B) IC50 Values: No effect

## O=C(O)c1cc(O)c(O)c(O)c1 [Gallic acid]
PTP-1B
  Antidiabetic Activity (PTP-1B) IC50 Values: No effect

## O=c1c(O)c(-c2ccc(O)c(O)c2)oc2cc(O)cc(O)c12 [Quercetin]
α-glucosidase; in vitro enzyme inhibition
  antidiabetic activities in the α-glucosidase inhibition assay (in words): potent antidiabetic activities

## O=C1O[C@H]([C@@H](O)CO)C(O)=C1O [Vitamin C, Ascorbic acid]
[1]
  Antioxidant Activity IC50 Values: 5.34 ± 0.42 µg/mL
